Measured values reported in article PMC6962393, “Targeting the tumor vasculature with engineered cystine-knot miniproteins” (Nature Communications, 2020).
Where no end group is shown, it is not given here. The star is where a group is joined. Biotin = O=C1N[C@H]2[C@H](CS[C@H]2CCCCC(=O)*)N1

Key:
[1] = molecular target: T1, biotinylated human FN-67B89 (Homo sapiens, UniProt P02751); test: Surface plasmon resonance, binding kinetics to FN-67B89; settings: for binding of tag-free variant to FN-67B89 by SPR: Fig 2d, multi-cycle kinetics, 50 to 1000 nM
T1 construct: flanked by its surrounding type III domains (FN-67B89, amino acid G1080-E1455); made in house; host or cells: E. coli BL21 (DE3), pET-21a
T1 sequence (P02751 1080-1546): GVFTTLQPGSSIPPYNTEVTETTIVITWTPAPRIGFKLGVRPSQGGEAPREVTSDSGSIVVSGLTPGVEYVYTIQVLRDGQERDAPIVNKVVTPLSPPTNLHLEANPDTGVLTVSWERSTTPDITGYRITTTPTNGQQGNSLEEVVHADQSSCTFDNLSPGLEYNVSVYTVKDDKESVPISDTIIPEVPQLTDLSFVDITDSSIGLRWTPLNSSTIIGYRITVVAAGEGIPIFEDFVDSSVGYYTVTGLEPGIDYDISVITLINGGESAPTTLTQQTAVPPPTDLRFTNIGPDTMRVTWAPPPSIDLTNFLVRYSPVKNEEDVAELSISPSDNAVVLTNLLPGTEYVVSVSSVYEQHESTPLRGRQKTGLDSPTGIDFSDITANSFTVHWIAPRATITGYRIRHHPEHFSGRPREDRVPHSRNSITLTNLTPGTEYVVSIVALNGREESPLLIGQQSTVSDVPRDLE
Method: Binding kinetics of monomeric and trimeric cystine-knot miniprotein ligands to its target protein was determined using a Biacore T-100 device (GE Healthcare Life Science) with PBS-T as running buffer. For this, the biotinylated FN-67B89 protein (200–300 µg/mL) was captured by binding to a flow cell of an SA sensor chip (GE Healthcare Life Science). To analyze monomeric ligands, an immobilized target density of maximum 750 response units (RU) was applied and for trimeric variants a RU of maximum 400 was aimed for. Binding analysis of monomeric ligands was performed using a multi-cycle kinetic method with concentrations ranging from 50 to 4000 nM. A cycle started with an association period of 90 s, followed by a dissociation period of 420 s and a final regeneration step. Kinetic measurement was conducted applying a flow rate of 20 µL/min. Trimeric variants were analyzed under the same association and dissociation conditions, but using the single-cycle kinetic measurement mode in a constant flow of […]. In this case the analyte concentration was between 1.25 and 10 nM. Binding kinetics and steady-state analysis were calculated using a global kinetic fit model (1:1 Langmuir, Biacore T-100 Evaluation Software; GE Healthcare Life Science).

FN-B = test: Hit identification ranking score (FN-B to BSA ELISA signal normalized to expression rate); format: binding, human; settings: signal (FN-B) to noise (BSA) ELISA ratio normalized to expression rate of Trx-cystine-knot miniprotein; MCopt 1.0 library
Method: Single colonies were picked, sequenced, and transferred to a 96-well plate for small-scale expression in 1 mL autoinduction medium (MagicMedia™; Thermo Fisher Scientific). Protein production was conducted overnight at 30 °C and 220 rpm. Cells were harvested by centrifugation at 3000 × g for 15 min, lysed via incubation in buffer (20 mM Tris, 2 mM MgCl2, 20 mM NaCl, pH 8) containing 0.1 mg/mL lysozyme (Merck Millipore) and 5 U/mL benzonase (Merck Millipore) combined with a freeze–thaw cycle, and heated for 10 min at 80 °C. After a final centrifugation (3000 × g, 15 min, 4 °C) to remove cell debris, the supernatant was collected for E-PAGE™ and binding analysis. E-PAGE^TM (Life Technologies) was used as a high throughput gel system to simultaneously analyze 96-probes in parallel for a quantification of produced and heat-purified proteins. E-PAGE^TM analysis was performed according to the manufacturer's instructions. ELISA was used as a technique to analyze protein–protein interactions. […] The wells were washed three times with PBS-T (1× PBS with 0.1% (w/v) Tween-20), blocked with 1× Casein buffer (Sigma Aldrich) diluted in PBS for 2 h at RT, and washed again as described. 20 µL of supernatant containing the respective heat-purified fusion protein were added to 80 µL PBS-T or 200 nM of MC-Myc-010 fusion protein (wells with anti-c-myc antibody) diluted in PBS-T, applied to the cavities, and incubated for 1 h at 4 °C. After three times of washing with PBS-T, binding of the respective variant was detected with a horseradish peroxidase (HRP)-conjugated anti-S-tag antibody (ab18589 or ab19324; Abcam) 1:2000 diluted in PBS. Enzymatic reaction was measured with TMB as a chromogenic substrate and stopped with 0.2 M HCl after approximately 5 min. The measurement of absorbance at 450 nm was performed using an Infinite M200 PRO Microplate Reader (Tecan). […]
Ranking scores were calculated on the basis of the signal (FN -B) to noise (BSA)
ratios determined via ELISA and were further normalized to the expression rate of Trx -cystine-knot […]

[2] = test system: EDB in U-87 MG glioblastoma xenograft tumor sections; test: Immunofluorescence staining of U-87 MG tumor tissue sections; parameters: species or system human U-87 MG grown as mouse xenograft; settings: biotinylated miniprotein tetramerized with Cy3-labeled streptavidin, 6 µm sections
Method: Cryopreserved tumor pieces were cut in 6-µm-thick sections, fixed in ice cold acetone for 5 min, and air-dried. Slides were then blocked in PBS with 3% BSA at RT for 5 min. For staining of EDB, 1 µg of the respective biotinylated cystine-knot miniprotein was incubated with 2.9 µg streptavidin-Cy3 conjugate (Rockland Immunochemicals) at RT for 30 min. The pre-formed complex or 0.1 µg AF680-(MC-FN-010)3 and anti-mouse CD31 antibody (RB-10333-P1, Thermo Fisher) diluted 1:100 in PBS with 1% BSA was then added to the tumor sections and incubated for 30 min at 37 °C. Afterwards, slides were washed three times with PBS containing 1% BSA. CD31 staining of sections treated with pre-formed complex was performed with a rat anti-mouse CD31 IgG antibody (102416; BioLegend) diluted 1:100 in PBS with 1% BSA for 30 min at 37 °C and detected with a secondary […] IgG-Cy3 antibody (111-165-003; Jackson ImmunoResearch) diluted 1:400 in PBS with 1% BSA for 30 min at 37 °C. After three washing steps in PBS, cell nuclei were stained with Höchst 33342 (Thermo Fisher Scientific) diluted 1:5000 in PBS for 30 min at RT. Slides were washed again as described above and covered with coverslips in a thin layer of mounting medium (Dako). Images were captured with a Zeiss Apotome microscope (Carl Zeiss) and analyzed with ZEN software (Carl Zeiss).

[3] = test system: FN-6789 (type III domains 6–9 without EDB); test: ELISA binding of Trx-cystine-knot miniproteins to off-target control FN-6789; parameters: species or system human; settings: FN-6789, streptavidin, milk powder, BSA
[4] = SPR Biacore T-100, biotinylated human FN-67B89 on streptavidin chip, PBS-T, 1:1 Langmuir fit

In the case of “PMCTQRKNRIRLCRRDSDCTGACICRGNGYCG (also: bicyclic or more (positions not given here)) [MC-FN-010]”, the “binding of tag-free variant to FN-67B89 by SPR” value [1] is reported as “detectable binding activity”, the “affinity / binding constant towards biotinylated FN-67B89 (range in words)” value ([1]; SPR) is reported as “single-digit micromolar range” and the Kd [1, 4] is reported as 1.58 µM. For the same substance, the Koff [1, 4] was 0.07831 s⁻¹, the Kon ([1]; SPR Biacore T-100, biotinylated human FN-67B89 on streptavidin chip, PBS-T, 1:1 Langmuir fit, monomers multi-cycle, trimers single-cycle) was 49500 M⁻¹ s⁻¹ and the Ranking value (FN-B) was 2.6 to 0.6.
For “WKCQPTNGYRIRCRRDSDCPGDCICRGNGYCG (also: bicyclic or more (positions not given here)) [MC-FN-030, cystine-knot miniprotein clone from MCopt 1.0 library]”, the “binding of tag-free variant to FN-67B89 by SPR” value [1] was “no detectable binding” and the Ranking value (FN-B) was 2.7 to 1.6.
In the case of “MC-FN-0115-bio: biotinylated MC-FN-0115, tetramerized with Cy3-labeled streptavidin for staining (Biotin-PMCTQRANRIAACRRDSDCTGACICRGNGYCG; also: cystine-knot disulfides, pairing not given here)”, the “staining of U-87 MG tumor sections” value [2] is reported as “did not stain”.
For “WTCTKKYPNTISCRRDSDCRVTCICRGNGYCG (also: bicyclic or more (positions not given here)) [MC-FN-020, cystine-knot miniprotein clone from MCopt 1.0 library, without R-I/V-R-(L) motif]”, the “binding to off-target and control proteins” value [3] was “strong binding” and the Ranking value (FN-B) was 3.7 to 1.7.
